Where two headings read alike, the source gives them in different places.
Legend:
[1] = system: Pentylenetetrazole (PTZ)-induced convulsion; experiment: Pentylenetetrazole (PTZ) seizure threshold test; format: in vivo, Swiss albino mice; settings: for ED50: Mus musculus, ip, median effective dose, mice, log-probit method; for % Protection: PTZ 100 mg/kg i.p. 30 min later, 4 animals; for protection against PTZ-induced seizures: dose not given (tested 25, 50, 100 and 200 mg/kg i.p.)
Experimental: Adult male Swiss […] mice (22-28 g), approximately 10-week old, were used to conduct the anticonvulsant evaluation. They were housed in cages and kept at a temperature of 20 ± 2°C and a relative humidity of 55 ± 5% with a light-dark cycle of 12 h and fed with standard diet and water ad libitum. […] A control group of mice was included and received intraperitoneal (i.p.) injections of the test compounds' vehicle. […] Picrotoxin (pic) was freshly dissolved in 1 ml 0.1N warmed HCl and the final volume was made up with 0.9% NaCl.
A single 5 seconds episode of clonic spasms was taken as a threshold seizure.
In each of the chemical and the electrical methods described above, Swiss albino mice were divided into 4 groups (N = 4 animals).

Albino Swiss mice [2] = settings: mouse, in vivo, 72 h
Experimental: (§1) The acute toxicity detenninatioii (LD50) for compounds of formula 1 was performed. Compounds were given intraperitoneally (i.p.) in doses ranging from 0.1-5 mmol/kg. […] All behavioral changes and death during the observation periods were recorded. […] The protective index (PI) and therapeutic index (TI) of each compound were calculated.
(§2) Initially the approximate LD50 of each test compound was determined. Albino Swiss mice (25 g body weight) were then divided into 4 groups (6 mice each). […] The animals were then observed closely for 4 hours and then occasionally for 72 hours. The percentage of death in each group was then calculated.

in vivo [3] = settings: mouse, ip
Experimental: as §1, §2

in vivo [4] = settings: mouse, ip; remark: listed apart in the source
Experimental: (§3) Median effective (ED50), and median sedative (TD50) were calculated.

Albino Swiss mice [5] = experiment: Acute toxicity determination (LD50); settings: Therapeutic index = LD50/ED50
Experimental: as §1, §2

motor performance = experiment: Minimal neurotoxicity (chimney test), motor performance; settings: Protective index = TD50/ED50
Experimental: as §3

Compound: CCCC(CCC)C(=O)[O-].[Na+] [Sodium Valproate, Sodium valproate, reference compound]
- ED50 [1]: 189 mg/kg
- % Protection ([1]; dose 50 mg/Kg i.p. [sic]): 100%
- TI (Albino Swiss mice [2]): 5.2
- LD50 at 72 h (in vivo [3]): 985 mg/kg
- TD50 (in vivo [4]): 470 mg/kg

Compound: CCC(=O)NNC(=O)CSc1nc2ccc(Cl)cc2c(=O)n1-c1ccccc1 [Compound 89, N'-[2-(6-Chloro-4-oxo-3-phenyl-3,4-dihydro-quinazolin-2yl-thio)acetyl]propionohydrazide]
- TI (Albino Swiss mice [5]): 24.6
- ED50 [1]: 11.8 mg/kg
- % Protection ([1]; dose 50 mg/Kg i.p. [sic]): 100%
- protection against PTZ-induced seizures [1]: 100%
- PI (motor performance): 8.5
- LD50 at 72 h (in vivo [3]; Albino Swiss): 290 mg/kg
- TD50 (in vivo [4]): 100 mg/kg

Compound: O=C(CCc1ccccc1)NNC(=O)CSc1nc2ccc(Cl)cc2c(=O)n1Cc1ccccc1 [Compound 115, N'-(2-(3-Benzyl-6-chloro-4-oxo-3,4-dihydro-quinazolin-2-yl-thio)acetyl)-3-phenylpropanehydrazide]
- TI (Albino Swiss mice [5]): 9.8
- ED50 [1]: 29.5 mg/kg
- % Protection ([1]; dose 150 mg/Kg i.p.): 100%
- protection against PTZ-induced seizures [1]: 100%
- PI (motor performance): 4.6
- LD50 at 72 h (in vivo [3]; Albino Swiss): 290 mg/kg
- TD50 (in vivo [4]): 136 mg/kg

Compound: COc1cc2nc(SCC(=O)NN)n(Cc3ccccc3)c(=O)c2cc1OC [Compound 70, 2-(3-Benzyl-6,7-dimethoxy-4-oxo-3,4-dihydro-quinazolin-2-yl-thio)acetohydrazide]
- TI (Albino Swiss mice [5]): 11.25
- ED50 [1]: 32 mg/kg
- % Protection ([1]; dose 50 mg/Kg i.p. [sic]): 100%
- protection against PTZ-induced seizures [1]: 100%
- PI (motor performance): 4.67
- LD50 at 72 h (in vivo [3]; Albino Swiss): 360 mg/kg
- TD50 (in vivo [4]): 149 mg/kg

Compound: CC(=O)NNC(=O)CSc1nc2ccc(Cl)cc2c(=O)n1Cc1ccccc1 [Compound 105, N'-Acetyl-2-(3-benzyl-6-chloro-4-oxo-3,4-dihydro-quinazolin-2-yl-thio)acetohydrazide]
- TI (Albino Swiss mice [5]): 9.7
- ED50 [1]: 24.8 mg/kg
- % Protection ([1]; dose 150 mg/Kg i.p.): 100%
- protection against PTZ-induced seizures [1]: 100%
- PI (motor performance): 8.7
- LD50 at 72 h (in vivo [3]; Albino Swiss): 240 mg/kg
- TD50 (in vivo [4]): 215 mg/kg

Compound: CCC(=O)NNC(=O)CSc1nc2cc(OC)c(OC)cc2c(=O)n1Cc1ccccc1 [Compound 110, N'-(2-(3-Benzyl-6,7-dimethoxy-4-oxo-3,4-dihydro-quinazolin-2-yl-thio)acetyl)propionohydrazide]
- TI (Albino Swiss mice [5]): 5.1
- ED50 [1]: 32.7 mg/kg
- % Protection ([1]; dose 150 mg/Kg i.p.): 100%
- protection against PTZ-induced seizures [1]: 100%
- PI (motor performance): 4.1
- LD50 at 72 h (in vivo [3]; Albino Swiss): 168 mg/kg
- TD50 (in vivo [4]): 134 mg/kg

— EP2740727B1, “Quinazolinone analogues for use as anticonvulsant agents” (King Saud University, priority 2012, dated 2014)
